Source: PubChem BioAssay AID857 (Vanderbilt High Throughput Screening Facility, 2007)
Active and inactive are the calls of the source.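 How the source made its calls: active means a full or partial dose-response curve in at least two of three replicate runs; inactive means the rest.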

Biological target: D(1B) dopamine receptor (Homo sapiens) (UniProt P21918)
Assay: dopamine D5 receptor modulation at EC30 dopamine, dose response, selectivity assay for D1 allosteric modulator project, cell-based, HEK293, CRE-luciferase, luminescence (AID 857);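 further: HEK 293 cells expressing human D5 with a CRE-driven luciferase reporter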

D(1B) dopamine receptor (Homo sapiens), sequence (P21918 whole entry, looked up): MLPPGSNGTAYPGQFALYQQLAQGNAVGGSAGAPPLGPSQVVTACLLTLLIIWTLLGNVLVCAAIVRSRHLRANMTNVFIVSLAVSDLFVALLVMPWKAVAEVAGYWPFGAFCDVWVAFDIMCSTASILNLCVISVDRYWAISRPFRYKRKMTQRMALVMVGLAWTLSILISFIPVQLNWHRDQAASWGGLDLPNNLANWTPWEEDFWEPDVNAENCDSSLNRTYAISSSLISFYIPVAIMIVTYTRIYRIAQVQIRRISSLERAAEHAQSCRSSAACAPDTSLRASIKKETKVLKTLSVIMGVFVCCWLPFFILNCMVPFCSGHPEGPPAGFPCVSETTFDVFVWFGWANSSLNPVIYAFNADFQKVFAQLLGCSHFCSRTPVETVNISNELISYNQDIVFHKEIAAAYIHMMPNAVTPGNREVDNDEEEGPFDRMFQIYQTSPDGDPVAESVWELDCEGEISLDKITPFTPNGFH

SMILES: O=C(CCc1ccc(CCC(=O)c2cccs2)s1)c1cccs1
- outcome: inactive

SMILES: CCn1c(SCC(=O)Nc2ccccc2N2CCCCC2)nc2c1c(=O)n(C)c(=O)n2C
- outcome: inactive

SMILES: NC(=O)c1oc2ccccc2c1NC(=O)c1ccc(F)cc1
- outcome: inactive

SMILES: C=CCn1c(SCc2nc3c(c(=O)[nH]c(=O)n3CCCC)n2CCC)nnc1-c1ccccc1
- outcome: inactive

SMILES: CCCCCn1c(NCc2ccco2)nc2ccccc21
- outcome: inactive

SMILES: CCOC(=O)N1CCC(NC(=O)c2cccc3c2C(=O)N(Cc2cccnc2)C3)CC1
- outcome: inactive

SMILES: Cc1oc2ccc(OCC(N)=O)cc2c1C(=O)OC(C)C
- outcome: inactive

SMILES: COc1ccc2nc(SCC(=O)N3CCCCCC3)c(C#N)cc2c1
- outcome: inactive

SMILES: Cc1c(-c2ccccc2)nc(N)c(C#N)c1-c1ccco1
- EC50: 2.01 µM

SMILES: CCOC(=O)CCSc1nc(C)c2ccccc2n1
- outcome: inactive

SMILES: Cc1cccc(C2CC(c3ccc(F)cc3)Nc3nc(N)nn32)c1 (stereo unspecified)
- outcome: inactive

SMILES: Fc1cc(Br)ccc1Nc1nc2ccccc2n2nnnc12
- outcome: inactive

SMILES: N#Cc1c2c(nc(N)c1-c1ccccc1)CCCCC2
- outcome: inactive

SMILES: Cc1cc(NCCCn2ccnc2)n2c(nc3ccccc32)c1C#N
- outcome: inactive

SMILES: CCOC(=O)CSc1nc2c(sc(=S)n2Cc2ccco2)c(=O)n1-c1ccccc1
- outcome: inactive

SMILES: O=CN1Cc2[nH]c3ccccc3c2N(c2ccc(Cl)cc2)C1=O
- outcome: inactive

SMILES: COc1ccc(-c2nnc(-c3ccc(Br)o3)o2)cc1OC
- outcome: inactive

SMILES: CCOC(=O)C1CCCN(C(=O)c2cc(Cl)ccc2Cl)C1 (stereo unspecified)
- outcome: inactive

SMILES: Cc1cc(Br)c2c(c1)=C(c1sc(N3CCCCCC3)nc1O)C(=O)N=2
- EC50: 1.03 µM

SMILES: CCOC(=O)c1cnn(-c2cccc(Cl)c2)c1N
- outcome: inactive

SMILES: CCOc1nc(NCCc2ccc(OC)c(OC)c2)nc(NC(C)(C)CO)n1
- outcome: inactive

SMILES: COc1ccc(C2CC(c3cc(OC)ccc3OC)n3nnnc3N2)cc1 (stereo unspecified)
- outcome: inactive

SMILES: C/C=C/Cn1c(SCCCc2ccccc2)nc2c1c(=O)[nH]c(=O)n2C
- outcome: inactive

SMILES: Cc1ccc(CNc2nc3ccccc3n3nnnc23)cc1
- outcome: inactive

SMILES: C=CCSc1nc2ccccc2c(=O)[nH]1
- outcome: inactive

SMILES: CCOC(=O)c1oc2ccc(Br)cc2c1NC(=O)CN1CCN(C)CC1
- outcome: inactive

SMILES: O=C(CSc1nc2ccccc2s1)NC(=O)NCc1ccco1
- outcome: inactive

SMILES: CCc1ccc2[nH]c(=O)c(CN(Cc3nnnn3C3CCCC3)C3CCCCC3)cc2c1
- outcome: inactive

SMILES: COc1ncnc2c1N[C@@](C)(O)c1c(F)c(F)c(F)c(F)c1S2
- outcome: inactive

SMILES: CCOc1ccccc1C1NC(=O)NC(C)=C1C(=O)OC1CCCCC1 (stereo unspecified)
- outcome: inactive

SMILES: CCOC(=O)N1CCN(S(=O)(=O)c2ccc3c(c2)CCN3C(=O)C2CCC2)CC1
- outcome: inactive

SMILES: CCCCn1c(=O)c(C(=O)Nc2cnccn2)c(O)c2ccccc21
- outcome: inactive

SMILES: Cc1nc(N2CCC(C(N)=O)CC2)c2nnn(Cc3ccccc3)c2n1
- outcome: inactive

SMILES: C=CCNc1sc(C(=O)C(C)(C)C)c(N)c1C#N
- outcome: inactive

SMILES: CCCn1c(=O)c2ccccc2n2c(SCc3nc4ccccc4s3)nnc12
- outcome: inactive

SMILES: COc1ccc2[nH]c(=O)c(CN(Cc3cccs3)Cc3nnnn3C(C)(C)C)cc2c1
- outcome: inactive

SMILES: COC(=O)c1cc(NC(=O)CSc2nc(C)cc(=O)[nH]2)cc(C(=O)OC)c1
- outcome: inactive

SMILES: COc1cc(OC)cc(C(=O)Nn2cc(C(=O)N3CCN(C)CC3)c3ccccc3c2=O)c1
- outcome: inactive

SMILES: C=CCNC(=O)c1ccccc1NC(=O)c1ccccc1
- outcome: inactive

SMILES: CCSC(C)CC1C/C(=N/O)c2c(CC)noc2C1 (stereo unspecified)
- outcome: inactive

SMILES: CC(=O)N=c1sc2nc3ccccc3nc2n1N(C(C)=O)C(C)=O
- outcome: inactive

SMILES: Cc1ccc(OCCN2C(=O)OC(C)(C)C2(C)O)cc1 (stereo unspecified)
- outcome: inactive

SMILES: CCC(=O)N1CCc2cc(S(=O)(=O)NCCC(=O)NC3CCCc4ccccc43)ccc21 (stereo unspecified)
- outcome: inactive

SMILES: CSc1oc(-c2ccco2)nc1S(=O)(=O)c1ccc(F)cc1
- outcome: inactive

SMILES: CCOC(=O)c1sc(NC(=O)CSc2nncs2)c(C(=O)OCC)c1C
- outcome: inactive

SMILES: CCC(=O)n1nc(-c2cccnc2)nc1NCc1ccc(OC)cc1
- outcome: inactive

SMILES: CCOc1ccc(CC(=O)Nc2c(C(N)=O)oc3ccccc23)cc1OCC
- outcome: inactive

SMILES: COc1ccc(OC)c(N2C(=O)C(Cl)=C(N3CCCCC3)C2=O)c1
- outcome: inactive

SMILES: COc1ccccc1NC(=O)CC1Nc2ccccc2NC1=O (stereo unspecified)
- outcome: inactive

SMILES: COC(=O)c1ccc(COc2nc(C)cc(C)c2C#N)o1
- outcome: inactive

SMILES: CNc1nc(C)c(C(=O)OCC(=O)OC)s1
- outcome: inactive

SMILES: N#CC1=C(N)Oc2nc(-c3ccccc3)[nH]c2C1c1cccnc1 (stereo unspecified)
- outcome: inactive

SMILES: Cc1ccc(-n2c(=O)cc(N3CC(C)CC(C)C3)[nH]c2=O)cc1 (stereo unspecified)
- outcome: inactive

SMILES: COC(=O)c1ccc(OCCn2cnc3ccccc3c2=O)cc1
- outcome: inactive

SMILES: CCOC(=O)C1CCCN(c2nc3ccccc3nc2C(C#N)C(=O)OCC)C1 (stereo unspecified)
- outcome: inactive

SMILES: CSc1oc(-c2ccco2)nc1S(=O)(=O)c1ccc(Br)cc1
- outcome: inactive

SMILES: Cc1ccc(Nc2nnc(SCc3cc(=O)n4ccsc4n3)s2)c(C)c1
- outcome: inactive

SMILES: CSc1ccccc1NC(=O)c1onc(C)c1Cl
- outcome: inactive

SMILES: O=c1cc(-c2ccccc2)c2c([nH]1)CCCC2
- outcome: inactive

SMILES: CSc1ccc(C2C(C#N)=C(N)N(c3ccccc3)C3=C2C(=O)CCC3)cc1 (stereo unspecified)
- outcome: inactive

SMILES: CC1(C)Cc2c(C#N)c(N3CCCC3)nc(-c3ccco3)c2CO1
- outcome: inactive

SMILES: COc1ccc(C2=NOC(C(=O)NC3CCCCC3)C2)cc1OC (stereo unspecified)
- outcome: inactive

SMILES: CCC(C)Sc1nc2c(c(=O)n1C)SC(C)C2 (stereo unspecified)
- outcome: inactive

SMILES: Cc1cc(SCC(=O)N2CCC(c3noc4ccc(F)cc34)CC2)nc2ccccc12
- outcome: inactive

SMILES: CCn1c2ccccc2c2nc3ccccc3nc21
- outcome: inactive

SMILES: Nc1nonc1-n1nnc(C(=O)c2ccccc2)c1-c1ccccc1
- outcome: inactive

SMILES: COCCNc1oc(-c2ccc(C)cc2)nc1C#N
- outcome: inactive

SMILES: Cc1nn2c(N3CCCC3)cc(C(C)C)nc2c1-c1ccccc1
- outcome: inactive

SMILES: CCOc1ccc(-c2nnn(CC(=O)NCc3ccc(OC)cc3)n2)cc1OCC
- EC50: 0.473 µM

SMILES: N#Cc1cn(-c2ccccc2)nc1-c1ccccc1
- outcome: inactive

SMILES: CCC(=O)n1nc(-c2ccco2)nc1N
- outcome: inactive

SMILES: CCN(CC)c1nc(N)c2c(N)nc3c(c2c1C#N)CC(c1ccccc1)O3 (stereo unspecified)
- outcome: inactive

SMILES: CCc1nnc(NC(=O)CSc2ncc(-c3ccccc3)n2CC)s1
- outcome: inactive

SMILES: N#CCSc1nc2c(sc(=S)n2Cc2ccco2)c(=O)n1-c1ccc(F)cc1
- outcome: inactive

SMILES: Cn1c(=O)c2[nH]c(NCC3CCCO3)nc2n(-c2ccccc2)c1=O (stereo unspecified)
- outcome: inactive

SMILES: NC(=O)NC(=O)Nc1ccccc1Cl
- outcome: inactive

SMILES: Cn1cnc2c1c(=O)n(Cc1ccc(F)cc1Cl)c(=O)n2C
- outcome: inactive

SMILES: COc1ccc(CCNS(=O)(=O)c2ccc3c(c2)OCCO3)cc1OC
- outcome: inactive

SMILES: COc1ccc(CN(Cc2cccnc2)S(=O)(=O)c2ccc(-n3cnnn3)c(C)c2)cc1OC
- outcome: inactive

SMILES: COc1cccc(NC2=NCC(=O)N2Cc2cccs2)c1
- outcome: inactive

SMILES: COc1ccc(Cc2nnc(NC(=O)c3c(-c4ccccc4)noc3C)s2)cc1
- outcome: inactive

SMILES: O=C1c2ccccc2-c2onc3ccc(NCCCn4ccnc4)c1c23
- outcome: inactive

SMILES: COc1ccc(-c2csc3nc(C)n(-n4cccc4)c(=O)c23)cc1OC
- outcome: inactive

SMILES: CCCCn1c(=NC(=O)c2cccnc2)c(C(=O)OCC)cc2c(=O)n3ccccc3nc21
- EC50: 1.07 µM

SMILES: CCCOc1ccccc1NC(=O)c1ccc(N)cc1
- outcome: inactive

SMILES: Cc1cc(O)c(C=Nc2cccc(Cl)c2)c(=O)o1
- outcome: inactive

SMILES: CCCn1c(SCC(=O)Nc2sc(C)c(C)c2C(=O)OCC)nc2c1c(=O)n(C)c(=O)n2C
- outcome: inactive

SMILES: Cc1cc(=O)n(CC=C(Cl)Cl)c2ccccc12
- outcome: inactive

SMILES: CCCCCn1c(SCC(=O)OC)nc2c1c(=O)[nH]c(=O)n2C
- outcome: inactive

SMILES: CCn1cc(C(=O)OCC(=O)OC2CC(C)CCC2C(C)C)c(=O)c2ccc(C)nc21 (stereo unspecified)
- outcome: inactive

SMILES: O=C(NCc1ccco1)c1cnn2c(C(F)(F)F)cc(-c3ccco3)nc12
- outcome: inactive

SMILES: Cn1c(=O)c2c(SCc3ccccc3)nc(-c3ccco3)nc2n(C)c1=O
- outcome: inactive

SMILES: CCOC(=O)c1c(C)c(C(=O)NCc2ccccc2OC)c(C)n1C
- outcome: inactive

SMILES: Cc1cc(NS(=O)(=O)c2ccc(NC(=O)COc3ccccc3C(C)C)cc2)no1
- outcome: inactive

SMILES: Cn1c(=O)c2c(nc(SCCCO)n2Cc2ccccc2Cl)n(C)c1=O
- outcome: inactive

SMILES: COC(=O)c1cccc(N2C(=O)C(Cl)=C(N3CCOCC3)C2=O)c1
- outcome: inactive

SMILES: Cc1cc(C)n(-c2nc3ccccc3nc2Nc2ccc(CC(=O)O)cc2)n1
- EC50: 1.11 µM

SMILES: Cc1cc(N)n(-c2nc(-c3cccnc3)nc3ccccc23)n1
- outcome: inactive

SMILES: CCc1nc(N)c(C#N)c(-c2ccncc2)c1C
- outcome: inactive

SMILES: CCN(CC)CCOc1c(Br)ccc2c1sc1nc3n(c(=O)c12)CCC3
- outcome: inactive

SMILES: Cc1cc(=O)oc2cc(OCC(=O)NCCc3nc4ccccc4[nH]3)ccc12
- outcome: inactive

SMILES: COc1ccc(CN(C2CCCC2)S(=O)(=O)c2ccc(-n3cnnn3)cc2)cc1OC
- outcome: inactive

SMILES: COC(=O)c1ccccc1NC(=O)COc1ccc(S(=O)(=O)N2CCCC2)cc1C
- outcome: inactive

SMILES: C=CCn1c(=O)c2c(C)c(C)sc2n2c(Nc3ccc(OC)cc3)nnc12
- outcome: inactive

SMILES: O=S(=O)(c1cccs1)N1CCN(c2ccccn2)CC1
- outcome: inactive

SMILES: Cc1cc(-n2nc(C)cc2C)nc(NS(=O)(=O)c2ccccc2)n1
- outcome: inactive

SMILES: CC(C)OC(=O)CSc1nnc(-c2cnccn2)n1-c1ccccc1
- outcome: inactive

SMILES: CCSc1nc2c(c(=O)n1CC)SC(C)C2 (stereo unspecified)
- outcome: inactive

SMILES: c1ccc(-c2nc3nonc3nc2-c2ccccc2)cc1
- outcome: inactive

SMILES: Cc1csc2c(C#N)c(=O)c3c(n12)CCC3
- outcome: inactive

SMILES: N#CCSc1ncnc2sc3c(c12)CCC3
- outcome: inactive
